# Data: ChEMBL document CHEMBL1681641, “Discovery of substituted phenyl urea derivatives as novel long-acting β2-adrenoreceptor agonists” (Bioorg Med Chem Lett, 2011)
# Experiments:
# Cavia porcellus [1] = test: Bronchocoprotective activity in guinea pig assessed as inhibition of acetylcholine-induced bronchoconstriction administered by aerosol after 4 hrs; assay type: functional, organism-based
# [2] = Bronchodialatory activity in guinea pig trachea assessed as tone recovery measured after 1 hr of drug washout; assay type: functional, Cavia porcellus; design: concentration or dose not given beside the values
# Cavia porcellus [3] = test: Bronchocoprotective activity in guinea pig assessed as inhibition of acetylcholine-induced bronchoconstriction administered by aerosol after 24 hrs; assay type: functional, organism-based
# [4] = molecular target: Beta-1 adrenergic receptor (Rattus norvegicus, UniProt P18090); test: Agonist activity at beta1 adrenoceptor in rat left atria assessed as induction of ionotropic effect; assay type: functional
# [5] = molecular target: Beta-2 adrenergic receptor (Cavia porcellus, UniProt Q8K4Z4); test: Agonist activity at beta2 adrenoceptor in guinea pig tracheal rings assessed as relaxation of tracheal smooth muscle; assay type: functional, tissue-based, Trachea
# Beta-2 adrenergic receptor, sequence (Q8K4Z4 whole entry): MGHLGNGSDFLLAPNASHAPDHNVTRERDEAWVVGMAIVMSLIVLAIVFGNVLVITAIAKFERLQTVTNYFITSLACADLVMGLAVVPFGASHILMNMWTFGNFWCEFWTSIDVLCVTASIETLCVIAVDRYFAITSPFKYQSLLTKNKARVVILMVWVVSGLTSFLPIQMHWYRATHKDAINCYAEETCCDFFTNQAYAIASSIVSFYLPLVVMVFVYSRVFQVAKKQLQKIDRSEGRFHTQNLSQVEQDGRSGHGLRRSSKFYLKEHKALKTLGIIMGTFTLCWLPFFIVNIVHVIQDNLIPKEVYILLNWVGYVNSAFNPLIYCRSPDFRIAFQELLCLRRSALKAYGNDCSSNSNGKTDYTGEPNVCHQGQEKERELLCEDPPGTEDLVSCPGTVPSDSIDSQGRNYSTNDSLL
# Beta-1 adrenergic receptor, sequence (P18090 whole entry): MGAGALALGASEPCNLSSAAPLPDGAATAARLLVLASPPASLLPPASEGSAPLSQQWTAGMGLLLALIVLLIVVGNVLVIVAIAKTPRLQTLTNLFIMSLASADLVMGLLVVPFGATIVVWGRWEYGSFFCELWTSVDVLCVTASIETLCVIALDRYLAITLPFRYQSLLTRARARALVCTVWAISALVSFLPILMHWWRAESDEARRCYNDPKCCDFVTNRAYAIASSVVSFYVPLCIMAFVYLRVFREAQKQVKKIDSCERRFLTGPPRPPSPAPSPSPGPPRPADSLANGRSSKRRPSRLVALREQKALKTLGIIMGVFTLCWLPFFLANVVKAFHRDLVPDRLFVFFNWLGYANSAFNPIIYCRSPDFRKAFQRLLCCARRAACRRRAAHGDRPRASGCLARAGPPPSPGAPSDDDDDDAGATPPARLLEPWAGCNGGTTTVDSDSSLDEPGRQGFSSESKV
Structure (SMILES),IC50 (Cavia porcellus [1]) [µg/mL],Activity [2] [%],IC50 (Cavia porcellus [3]) [µg/mL],EC50 [4] [nM],EC50 [5] [nM]
O=C(NCc1ccccc1)Nc1cccc(CCNCC(O)c2ccc(O)c3[nH]c(=O)ccc23)c1 (stereo unspecified),0.3,15,> 100,900,0.2
O=C(Nc1cccc(CCNCC(O)c2ccc(O)c3[nH]c(=O)ccc23)c1)NC(c1ccccc1)c1ccccc1 (stereo unspecified),1,2,1.5,8890,0.2
NC(=O)C(c1ccccc1)(c1ccccc1)[C@@H]1CCN(CCc2ccc3c(c2)CCO3)C1 [DARIFENACIN],5,0,12,2310,1
O=C(NCCCc1ccccc1)Nc1cccc(CCNCC(O)c2ccc(O)c3[nH]c(=O)ccc23)c1 (stereo unspecified),1,2,3,> 10000,0.05
CC(C)(C)c1ccc(CNC(=O)Nc2cccc(CCNCC(O)c3ccc(O)c4[nH]c(=O)ccc34)c2)cc1 (stereo unspecified),,5,,,0.9
O=C(NCCc1ccccc1)Nc1cccc(CCNCC(O)c2ccc(O)c3[nH]c(=O)ccc23)c1 (stereo unspecified),2,9,> 10,> 10000,0.09
O=C(NCc1ccc(F)cc1)Nc1cccc(CCNCC(O)c2ccc(O)c3[nH]c(=O)ccc23)c1 (stereo unspecified),,16,,6300,0.2
O=C(NCC12CC3CC(CC(C3)C1)C2)Nc1cccc(CCNCC(O)c2ccc(O)c3[nH]c(=O)ccc23)c1 (stereo unspecified),,8,,296,3.2
O=C(Nc1cccc(CCNCC(O)c2ccc(O)c3[nH]c(=O)ccc23)c1)Nc1ccccc1-c1ccccc1 (stereo unspecified),3,4,7,5770,0.7
O=C(Nc1cccc(CCNCC(O)c2ccc(O)c3[nH]c(=O)ccc23)c1)Nc1cccc(Oc2ccccc2)c1 (stereo unspecified),,0,,10000,1
COc1ccccc1CNC(=O)Nc1cccc(CCNCC(O)c2ccc(O)c3[nH]c(=O)ccc23)c1 (stereo unspecified),,23,,550,0.2
O=C(NCc1c(Cl)cccc1Cl)Nc1cccc(CCNCC(O)c2ccc(O)c3[nH]c(=O)ccc23)c1 (stereo unspecified),4,4,> 100,1600,0.2
O=C(Nc1ccccc1)Nc1cccc(CCNCC(O)c2ccc(O)c3[nH]c(=O)ccc23)c1 (stereo unspecified),0.2,12,3,> 10000,0.07
NC(=O)c1cccc(CNC(=O)Nc2cccc(CCNCC(O)c3ccc(O)c4[nH]c(=O)ccc34)c2)c1 (stereo unspecified),,52,,,0.13
